This is an account of results in patent US7875270B2, “Treatment solution and method for preventing posterior capsular opacification by selectively inducing detachment and/or death of lens epithelial cells” (Abbott Medical Optics Inc., priority 2002, dated 2011).

Data set [1] concerns in vivo rabbit eyes. In words: In vivo prevention of PCO after cataract operation in rabbit eyes. The settings on record: 200 or 300 μm NEM in PBS or 170 mM monnitol. How it is done: The experimental group includes sixteen rabbit eyes and the control group includes four rabbit eyes. A sham cataract operation is performed on the control animals. The therapy is introduced to the others.
The pupil of each rabbit eye is preoperatively dilated with topical G Phenylephrine 10% (Alcon Labs., Inc., China) and G Cyclopentolate 1% (Bausch & Lomb Pharm., Inc., USA) three times in one hour. The rabbits are anesthetized with ketamine hydrochloride (5 mg kg-1) and xylazine hydrochloride (2 mg kg-1) and placed on an operating table. A topical anesthetic (Dieaine hydrochloride 1%) is used every five minutes on two occasions. A wire lid speculum is placed to hold the eyelids open.
A 3.2 mm scleral tunnel incision into the eye is formed at the temporal limbus. The anterior chamber is maintained with viscoelastic substances and a 4-5 mm diameter continuous curvilinear capsularhexis (CCC) is made on the anterior surface of the lens to open its bag. The treatment solution is first introduced in the LECs by hydrodissection. This ensures that the treatment fluid immediately reaches under the entire anterior capsule/LECs. This process allows for (i) separation of the lens cortex from the capsule and lens epithelium, making removal of the lens cortex easier at a later stage of the operation and (ii) the LECs to be exposed to the treatment for enough time (more than five minutes in total time).
The crystalline lens is then removed using phacoemulsification (Universal II, Alcon Labs., Inc., China). The remaining cortex is aspirated thoroughly and removed as completely as possible to expose the LECs. The lens capsular bag is then partially filed with viscoelastic material in order to maintain its shape. The viscoelastic material should not cover the LECs when the treatment solution is applied.
The treatment is spread over the inner surface of the anterior capsular bag (where the LECs attach). The anterior capsular is continuously filled by using a syringe with a bent needle. Care is taken not to over flow the bag. After the treatment solution covered the capsule bag, it is left for five minutes and then removed using a syringe.
In a few cases, IOLs are inserted. […] At the same time, the incision is enlarged to 6.0 mm and a posterior ocular lens (IOLs) (poly-methyl methacrylate, PMMA) with a 6.5 mm optic is prepared and placed into the capsular bag.
The wound is closed with or without suture.
At the completion of the surgical procedure, each rabbit eye receives subconjunctival dexamethasone (0.25 ml) and gentamicin (0.25 ml). Postoperatively, atropine sulphate 1% ophthalmic solution and neomycin sulphate-polymyxin sulphate-dexamethasone ophthalmic ointment are administered twice daily for three weeks.
The animals are evaluated for three weeks and ten weeks. […] All rabbits are evaluated by slitlamp and scored for ocular responses at 1 day and at 1, 2 and 3 weeks. (See FIG. 17, Table 1.) Three and ten weeks after surgery, the animals are anesthetized using a 2 ml intramuscular injection of 11:1 mixture of ketamine hydrochloride and xylazine 20 mg/ml and then killed with a 2 ml intravenous injection of sodium pentobarbital.
The eye globes are enucleated (some of them fixed in neutral buffered formalin 10% solution for 24 hours) and are bisected coronally just anterior to the equator. Gross examination is performed to assess. PCO development. Photographs are taken from behind (Miyake-Apple posterior photographic technique) by using a digital camera fitted to an operating microscope (Leica/Wild MZ-8, Vashaw Scientific, Inc.).
The extent and severity of PCO is scored (see FIG. 17, Table 1) according to methods reported in the literature. The lens capsules are then fixed and evaluated under a microscope (Olumpus, Optical Co. Ltd.) and photographed with a digital camera.

Data set [2] concerns in vivo rabbit eyes. The data set is described as above. The settings on record: IOLs coated with 300 μm NEM in PBS, dried overnight, inserted into the lens capsular bag.
Data set [3] deals with human LECs-CCCs freshly removed from cataract operation. Description: In situ treatment of LECs attached to capsulorhexis lens capsule (LECs-CCC). The settings on record: 200 or 300 μm NEM in PBS. The class given is cell-based. The protocol:
The in situ effects of a treatment solution comprising dihydrochlorothiazide (DHCT) (a cotransport interference agent from the group of the thiazide and related diuretics) and hyperosmotic NaCl on human LECs is examined. The treatment is tested on LECs that are still attached to a continuous curvilinear capsulorhexis lens capsule (LECs-CCC) which are freshly removed from a human cataract operation.
The LECs-CCCs are obtained from a cataract operation and immediately put in freshly prepared Eagle's Minimum Essential Medium (MEM) supplemented with 2 mM glutamine, 25 mmol/L Hepes (pH 7.4) without foetal cow serum (FCS) and is transferred to the laboratory for evaluation. Viable LECs are identified by staining the LECs-CCCs for five minutes with 0.2% Trypan Blue. The sheets containing more than 70% viable LECs are used to assess the efficacy of the treatment. […]
In the first step, a hyperosmotic solution of NaCl is prepared by making a stock solution of 2 M NaCl by adding 58.44 g NaCl (supplied by Sigma Chemical Co., U.S.) to 500 ml dH2O. The desired concentration of osmotic NaCl is prepared by diluting the 2M stock solution with dH2O. For example, to make a hyperosmotic solution of 170 mM NaCl, the 2M NaCl stock solution was diluted with dH2O at a ratio of […]. To make a hyperosmotic solution of 200 mM NaCl, the 2M NaCl stock solution is diluted with dH2O at a ratio of 1 to 9. Final osmolarities (mOsm/kg/H2O) are determined by a freezing point depression method using cryoscopic osmometry.
In the second step, DHCT stock solution is made by adding 25 mg DHCT to 1 ml dH2O. […]
The treatment is applied by exposing the LECs-CCCs for five minutes in a small petri dish containing the treatment solution. The treatment solution is removed after five minutes exposure by a syringe and then the fresh PBS is added in the petri dish to wash away the treatment solution. The LECs-CCCs are washed three times. The changes of the LECS are monitored under a microscope. Microscope photographs are taken at 0, 2 and 5 minutes and after wash.

Consider `CCN1C(=O)C=CC1=O` [NEM, N-ethylmaleimide], for which the “LECs on the lens capsule bag under microscope” value in data set [1] is given as “no LECs on the lens capsule bag”. In data set [1] (3 and 10 weeks follow up), the “development of CPCO or PPCO” value was “no CPCO or PPCO develops”. In data set [1] (solution introduced directly), the intraocular inflammatory reaction result was “heavy intraocular inflammatory reaction in the early period and posterior synechiae”. In data set [2], the “anterior chamber (AC) reaction” value is “significantly reduces the AC reaction”. Besides, the “LEC changes after five minutes of acute exposure” value in data set [3] is listed as “almost no changes are observed”. Moreover, the “LEC changes once put into PBS washing solution” value in data set [3] (after treatment) is “shrink and large gaps form between the cells. The shrunken cells then detach”.
